In patent publication US11179391B2, “Compound with kinase inhibitory activity and preparation method and use thereof” (priority 2017, dated 2021):

What was measured:
[1] = molecular target: CDK2/CycA2 (Homo sapiens, UniProt P24941); assay: Determination of CDK activity (Caliper mobility shift, FAM-P8 peptide): CDK2; assay type: biochemical; conditions: CDK2/CycA2; read-out: CDK2 enzymatic inhibitory activity (IC50)
[2] = molecular target: CDK7/CyclinH/MAT1 (Homo sapiens, UniProt P50613); assay: Determination of CDK activity (Caliper mobility shift, FAM-P8 peptide): CDK7; assay type: biochemical; conditions: CDK7/CyclinH/MAT1; read-out: CDK7 enzymatic inhibitory activity (IC50)
Procedure, shortened: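 His-CDK7/GST-MAT1/cyclin H preincubated with compound (10-point series) 10 min at room temperature, then reacted with FAM-P8 peptide plus ATP at 28 °C for a set time before stopping. Peptide conversion read by Caliper mobility shift; converted to % inhibition vs controls and IC50 fitted.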

[3] = molecular target: CDK6/cycD3 (Homo sapiens, UniProt Q00534); assay: Determination of CDK activity (Caliper mobility shift, FAM-P8 peptide): CDK6; assay type: biochemical; conditions: CDK6/cycD3; read-out: CDK6 enzymatic inhibitory activity (IC50)
Procedure, shortened: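 GST-CDK6(1-326)/cycD3 with FAM-P8 peptide and ATP, after 10 min room-temperature enzyme–compound preincubation; reaction at 28 °C, then EDTA stop. Substrate conversion read by Caliper mobility shift; inhibition from no-compound and no-enzyme controls, IC50 fitted over 10-point dilution in DMSO.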

[4] = molecular target: CDK9/cyclinTl (Homo sapiens, UniProt P50750); assay: Determination of CDK activity (Caliper mobility shift, FAM-P8 peptide): CDK9; assay type: biochemical; conditions: CDK9/cyclinTl; read-out: CDK9 enzymatic inhibitory activity (IC50)
[5] = molecular target: CDK4/CycD3 (Homo sapiens, UniProt P11802); assay: Determination of CDK activity (Caliper mobility shift, FAM-P8 peptide): CDK4; assay type: biochemical; conditions: CDK4/CycD3; read-out: CDK4 enzymatic inhibitory activity (IC50)
Procedure, shortened: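 GST-CDK4(1-303)/GST-CycD3(1-292) was preincubated with compound for 10 min at room temperature, then FAM-P8 peptide and ATP were added; the reaction ran at 28 °C and was stopped with EDTA-containing stop buffer. Peptide conversion was read by Caliper mobility shift. A 10-point dilution series was fitted for IC50.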

[6] = Pharmacokinetic study in rats; assay type: in vivo, Sprague-Dawley rats; conditions: for F / Cmax / Tmax / clearance / half-life / AUC(0-t): male Sprague-Dawley rats; for F: iv 2 mg/kg and oral 5 mg/kg; for Cmax / Tmax / clearance / half-life / AUC(0-t): rat, plasma, study dosed iv 2 mg/kg and oral 5 mg/kg, route of this parameter not given; for AUC(0-t): read-out: AUC0-24 h
Protocol: Healthy adult Sprague-Dawley rats, male, 7-10 weeks old, weighing 240-270 g, provided by Beijing Vital River Laboratory Animal Technology Co., Ltd., with an animal certificate number of 1140070278736.
Test compounds of the invention: example 17, 33, 40, and 57.
Intravenous administration solvent system of compounds: 10% (V/V) NMP and 90% (20% (V/V)) SBE-β-CD in 16.667 mM PBS with a concentration of 1.0 mg/mL.
Oral administration solvent system of compounds: pure water system containing 0.1% hydroxyethyl cellulose and 0.5% Tween-80, with a concentration of 1 mg/mL.
Intravenous administration: 3 male Sprague-Dawley rats of each test compound were injected intravenously after fasting overnight, with a dose of 2 mg/kg, and the dosing volume was 2 mL/kg. […]
Before the administration, and after administration of 0.0833 (iv), 0.25, 0.5, 1, 2, 4, 8, 12, and 24 h, the jugular vein puncture (approximately 0.15 mL per time point) of each animal was performed by collecting blood from polypropylene tubes. All blood samples were transferred to pre-cooled EDTA-K2 test tubes or pre-cooled plastic microcentrifuge tubes containing 3 μL of 0.5 M EDTA-K2 as anticoagulant and placed on wet ice until centrifugation. Each collected blood was centrifuged at 4° C. for 15 minutes, and plasma was collected. All plasma would be stored in a freezer at about −80° C. until LCMS/MS detection.

[7] = molecular target: CDK1/CyclinB (Homo sapiens, UniProt P06493); assay: Determination of CDK activity (Caliper mobility shift, FAM-P8 peptide): CDK1; assay type: biochemical; conditions: CDK1/CyclinB; read-out: CDK1 enzymatic inhibitory activity (IC50)
[8] = test system: Human colorectal cancer Colo-205 cells; assay: Pharmacodynamic study on mouse Colo-205 model (subcutaneous xenograft); assay type: in vivo, BALB/c nude mice; conditions: Colo-205 model, mesylate, 50 mg/kg PO × 28 days
Excerpt: BALB/c nude mice, 6-8 weeks old, weighing 12-14 g, female, provided by Shanghai Lab Animal Research Center (Shanghai Xipuer-Beikai) with an animal certificate No: 2008001682093.
The experiment was started after 3-7 days in the experimental environment when the animals arrived. Animals were housed in IVC (independent air supply system) cages (Four animals per cage) in SPF grade experimental animal facilities. Each cage animal information card contained the number of animals in the cage, sex, strain, receiving date, dosing schedule, experiment number, group and start date of the experiment. All cages, bedding, and drinking water were sterilized before use and were updated twice a week.
4.3 Tumor Cell Inoculation Method
Human colorectal cancer Colo-205 cells (ATCC-CCL-222) were cultured in vitro in monolayer under the conditions of RPMI 1640 medium with 10% fetal bovine serum, 100 U/mL penicillin and 100 μg/mL streptomycin, and 37° C. 5% CO2 incubator. The passage was routinely digested with trypsin-EDTA twice a week. When the cell saturation was up to 80%-90% and reached the requirement, the cells were collected, counted and inoculated. 0.2 mL (5×10^6) Colo-205 cells were subcutaneously inoculated on the right back of each mouse, and mice were randomly grouped and dosed when the average tumor volume reached 163 mm^3.
4.14 mL of lactic acid was added to a large beaker containing 800 mL of deionized water, and the pH was adjusted to 4.0 with 5 N NaOH. Then the volume was fixed to 1,000 mL to obtain 50 mmol/L sodium lactate buffer.
The subcutaneous tumor volume of nude mice was measured 2-3 times a week, and the mice were weighed, and the data were recorded.
4.6 Analysis and Evaluation
Experimental evaluation index: the tumor growth inhibition rate TGI (%) or the relative tumor proliferation rate T/C (%) was used for evaluation, wherein T was the experimental group, and C was the vehicle group.

[9] = rat plasma, at the dose of 10 mg/kg

CDK7/CyclinH/MAT1, sequence (P50613 whole entry): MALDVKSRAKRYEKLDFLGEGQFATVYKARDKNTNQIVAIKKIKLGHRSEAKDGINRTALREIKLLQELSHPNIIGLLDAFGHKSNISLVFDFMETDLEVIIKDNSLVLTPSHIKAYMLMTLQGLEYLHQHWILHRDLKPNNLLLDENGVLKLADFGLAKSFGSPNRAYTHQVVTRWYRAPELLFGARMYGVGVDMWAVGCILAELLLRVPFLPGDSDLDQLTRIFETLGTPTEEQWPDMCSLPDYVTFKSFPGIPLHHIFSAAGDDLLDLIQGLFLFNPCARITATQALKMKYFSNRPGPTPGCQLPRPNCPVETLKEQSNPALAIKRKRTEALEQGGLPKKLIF
CDK7/CyclinH/MAT1, sequence (P51946 whole entry partner): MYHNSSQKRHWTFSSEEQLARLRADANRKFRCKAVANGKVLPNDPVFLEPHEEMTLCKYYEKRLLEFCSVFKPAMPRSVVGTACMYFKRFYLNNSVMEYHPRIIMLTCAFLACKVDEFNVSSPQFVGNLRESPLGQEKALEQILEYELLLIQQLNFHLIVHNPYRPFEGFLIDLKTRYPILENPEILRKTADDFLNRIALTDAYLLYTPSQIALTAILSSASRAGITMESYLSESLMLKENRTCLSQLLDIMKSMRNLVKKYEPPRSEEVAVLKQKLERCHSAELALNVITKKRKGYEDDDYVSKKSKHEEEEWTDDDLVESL
CDK7/CyclinH/MAT1, sequence (P51948 whole entry partner): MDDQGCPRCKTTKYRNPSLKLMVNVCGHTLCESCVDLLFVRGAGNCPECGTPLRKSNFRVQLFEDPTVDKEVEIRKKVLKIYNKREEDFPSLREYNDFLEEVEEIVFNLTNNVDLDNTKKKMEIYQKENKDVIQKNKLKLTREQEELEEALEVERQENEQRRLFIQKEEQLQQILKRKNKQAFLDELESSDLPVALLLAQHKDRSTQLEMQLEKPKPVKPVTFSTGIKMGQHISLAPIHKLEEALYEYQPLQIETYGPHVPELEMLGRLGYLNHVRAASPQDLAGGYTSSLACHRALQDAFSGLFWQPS
CDK4/CycD3, sequence (P11802 whole entry): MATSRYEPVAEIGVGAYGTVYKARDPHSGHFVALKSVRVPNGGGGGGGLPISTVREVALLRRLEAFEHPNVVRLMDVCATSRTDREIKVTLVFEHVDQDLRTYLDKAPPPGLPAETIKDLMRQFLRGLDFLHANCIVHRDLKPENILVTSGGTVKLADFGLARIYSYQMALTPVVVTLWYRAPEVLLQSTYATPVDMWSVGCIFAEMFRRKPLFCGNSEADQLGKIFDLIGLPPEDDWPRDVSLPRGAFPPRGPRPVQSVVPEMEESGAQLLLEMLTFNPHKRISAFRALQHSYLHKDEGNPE
CDK4/CycD3, sequence (P30281 whole entry partner): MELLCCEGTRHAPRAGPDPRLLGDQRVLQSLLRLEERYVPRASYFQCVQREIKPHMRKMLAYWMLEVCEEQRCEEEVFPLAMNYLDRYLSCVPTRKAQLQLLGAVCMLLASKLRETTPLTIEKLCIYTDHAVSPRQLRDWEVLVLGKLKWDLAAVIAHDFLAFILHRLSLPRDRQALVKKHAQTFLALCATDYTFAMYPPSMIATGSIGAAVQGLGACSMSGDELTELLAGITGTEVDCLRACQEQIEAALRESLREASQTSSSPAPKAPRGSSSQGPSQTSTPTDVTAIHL
CDK6/cycD3, sequence (Q00534 whole entry): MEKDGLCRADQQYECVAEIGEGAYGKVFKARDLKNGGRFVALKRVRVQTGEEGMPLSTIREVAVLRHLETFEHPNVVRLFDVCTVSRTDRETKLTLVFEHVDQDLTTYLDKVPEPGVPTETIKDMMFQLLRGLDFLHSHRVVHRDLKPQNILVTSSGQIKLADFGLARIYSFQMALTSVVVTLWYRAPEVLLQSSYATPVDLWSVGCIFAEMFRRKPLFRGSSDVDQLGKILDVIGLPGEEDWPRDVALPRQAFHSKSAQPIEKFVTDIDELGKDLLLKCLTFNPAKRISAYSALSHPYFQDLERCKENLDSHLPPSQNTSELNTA
CDK6/cycD3, sequence (P30281 whole entry partner): as the sequence (P30281 whole entry partner) above
CDK9/cyclinTl, sequence (P50750 whole entry): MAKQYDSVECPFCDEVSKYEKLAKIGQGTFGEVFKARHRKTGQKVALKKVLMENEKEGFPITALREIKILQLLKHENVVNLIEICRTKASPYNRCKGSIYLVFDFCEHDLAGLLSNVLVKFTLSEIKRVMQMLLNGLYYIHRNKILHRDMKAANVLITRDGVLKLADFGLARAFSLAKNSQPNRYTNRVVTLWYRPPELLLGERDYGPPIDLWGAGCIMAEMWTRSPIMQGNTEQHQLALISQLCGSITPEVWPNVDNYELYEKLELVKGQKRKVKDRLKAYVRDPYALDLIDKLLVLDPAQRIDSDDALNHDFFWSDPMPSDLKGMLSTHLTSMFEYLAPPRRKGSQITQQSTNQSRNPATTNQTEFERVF
CDK9/cyclinTl, sequence (O60563 whole entry partner): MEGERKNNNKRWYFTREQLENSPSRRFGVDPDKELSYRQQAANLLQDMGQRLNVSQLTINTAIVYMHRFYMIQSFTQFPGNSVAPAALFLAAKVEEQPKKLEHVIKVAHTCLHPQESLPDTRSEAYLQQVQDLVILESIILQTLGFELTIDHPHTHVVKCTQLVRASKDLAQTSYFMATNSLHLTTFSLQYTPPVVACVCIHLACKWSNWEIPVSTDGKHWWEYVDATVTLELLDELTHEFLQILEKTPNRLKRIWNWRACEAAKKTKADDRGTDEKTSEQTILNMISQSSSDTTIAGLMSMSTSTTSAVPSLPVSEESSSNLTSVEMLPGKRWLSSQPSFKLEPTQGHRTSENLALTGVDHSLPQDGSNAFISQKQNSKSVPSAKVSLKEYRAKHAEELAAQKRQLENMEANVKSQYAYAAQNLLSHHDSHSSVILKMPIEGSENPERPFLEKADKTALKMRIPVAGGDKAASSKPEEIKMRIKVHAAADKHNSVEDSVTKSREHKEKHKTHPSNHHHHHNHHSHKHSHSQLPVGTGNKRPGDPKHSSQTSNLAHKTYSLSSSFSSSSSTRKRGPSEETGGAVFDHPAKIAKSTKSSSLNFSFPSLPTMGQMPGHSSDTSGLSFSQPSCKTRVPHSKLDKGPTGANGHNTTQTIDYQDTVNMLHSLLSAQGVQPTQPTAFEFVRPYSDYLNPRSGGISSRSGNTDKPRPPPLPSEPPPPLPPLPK
CDK1/CyclinB, sequence (P06493 whole entry): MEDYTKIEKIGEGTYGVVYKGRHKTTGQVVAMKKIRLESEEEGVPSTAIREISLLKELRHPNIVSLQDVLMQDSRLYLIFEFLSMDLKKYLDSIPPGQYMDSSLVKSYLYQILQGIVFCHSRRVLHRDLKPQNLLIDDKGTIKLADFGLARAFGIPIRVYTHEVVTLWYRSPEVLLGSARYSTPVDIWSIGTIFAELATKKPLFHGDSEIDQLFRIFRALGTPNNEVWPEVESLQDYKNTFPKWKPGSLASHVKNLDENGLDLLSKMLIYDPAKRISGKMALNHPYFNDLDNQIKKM
CDK1/CyclinB, sequence (P14635 whole entry partner): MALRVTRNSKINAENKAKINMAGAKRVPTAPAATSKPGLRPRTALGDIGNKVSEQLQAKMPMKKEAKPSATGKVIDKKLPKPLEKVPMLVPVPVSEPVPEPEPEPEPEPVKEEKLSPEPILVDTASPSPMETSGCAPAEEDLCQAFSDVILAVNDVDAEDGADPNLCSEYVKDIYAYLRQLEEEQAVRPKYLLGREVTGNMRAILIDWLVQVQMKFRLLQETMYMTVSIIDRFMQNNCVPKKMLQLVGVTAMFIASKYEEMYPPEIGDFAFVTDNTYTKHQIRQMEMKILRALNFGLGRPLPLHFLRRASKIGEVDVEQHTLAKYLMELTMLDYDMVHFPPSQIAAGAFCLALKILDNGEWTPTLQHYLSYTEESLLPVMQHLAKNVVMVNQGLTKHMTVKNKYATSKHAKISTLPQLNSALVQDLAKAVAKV

Row | IC50 [1] [nM] | IC50 [2] [nM] | IC50 [3] [nM] | IC50 [4] [nM] | IC50 [5] [nM] | F [6] [%] | clearance in rat plasma (in words) [6, 9] | half-life in rat plasma (in words) [6, 9] | level of exposure at 24 h in rat plasma (in words) [6, 9] | Cmax [6] [ng/mL] | Tmax [6] [h] | clearance [6] [mL/min/kg] | half-life [6] [h] | AUC(0-t) [6] [ng·h/mL] | IC50 [7] [nM] | SMILES | Tumor volume (day 0) ([8]; baseline at start of dosing) [mm^3] | Tumor volume (day 28) [8] [mm^3] | TGI tumor growth inhibition rate ([8]; day 28) [%]
1 | < 100 | 1000 to 10000 | < 100 | < 100 | < 100 | 43.7 | lower clearance | longer half-life | high level of exposure | 161 | 8 | 12.1 | 8.19 | 2570 | 100 to 500 | C=C(c1ccc(Nc2ncc(F)c(-c3cc(F)c4nc(C)n(C(C)C)c4c3)n2)nc1)C1CCN(CC)CC1 [Example 33, N-(5-(1-(1-ethylpiperidin-4-yl)vinyl)pyridin-2-yl)-5-fluoro-4-(4-fluoro-1-isopropyl-2-methyl-1H-benzo[d]imidazol-6-yl) pyrimidin-2-amine] |  |  | 
2 | < 100 | 500 to 1000 | < 100 | < 100 | < 100 | 13.3 |  |  |  | 12.9 | 4 | 72.8 | 11.9 | 132 | < 100 | CCN1CCC(C(O)c2ccc(Nc3ncc(F)c(-c4cc(F)c5nc(C)n(C(C)C)c5c4)n3)nc2)CC1 (single isomer, unassigned) [Example 40, (R or S)-(1-ethylpiperidin-4-yl)(6-((5-fluoro-4-(4-fluoro-1-isopropyl-2-methyl-1H-benzo [d]imidazol-6-yl)pyrimidin-2-yl)amino)pyridin-3-yl) methanol] |  |  | 
3 |  |  |  |  |  |  |  |  |  |  |  |  |  |  |  | CCN1CCN(Cc2ccc(Nc3ncc(F)c(-c4cc(F)c5nc(C)n(C(C)C)c5c4)n3)nc2)CC1 [Abemaciclib, reference compound] | 198 | 749 | 74.5
4 | < 100 | 1000 to 10000 | < 100 | 100 to 500 | < 100 |  |  |  |  |  |  |  |  |  | 100 to 500 | Cc1nc2c(F)cc(-c3nc(Nc4ccc([C@H](C)C5CCN(CC(F)(F)F)CC5)cn4)ncc3F)cc2n1C(C)C [Example 85] |  |  | 
5 | 100 to 500 | 100 to 500 | 100 to 500 | 500 to 1000 | 100 to 500 |  |  |  |  |  |  |  |  |  | 100 to 500 | Cc1nc2c(F)cc(-c3nc(Nc4ccc([C@@H](O)C5CCNCC5)cn4)ncc3F)cc2n1C(C)C [Example 44] |  |  | 
6 | 100 to 500 | 100 to 500 | < 100 | 100 to 500 | < 100 |  |  |  |  |  |  |  |  |  | 100 to 500 | Cc1nc2c(F)cc(-c3nc(Nc4ccc([C@H](O)C5CCN(C)CC5)cn4)ncc3F)cc2n1C(C)C [Example 49] |  |  | 
